This is an account of results in patent US9725465B2, “Biaryl acetamide compounds and methods of use thereof” (Ambit Biosciences Corporation, priority 2013, dated 2017).

Each structure is given as a SMILES string. Structures can show the parent of a compound that is named as a salt.

One assay concerns the target KIT kinase (Homo sapiens (Human), UniProt P10721). Briefly: Competition binding assay (Kd), KIT. The settings on record: competition binding assay. In outline:
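Kd derived from eleven-point threefold serial dilutions of compound competing with bead-bound ligand for kinase; bound kinase eluted and measured by quantitative PCR. Kinase supplied either as a T7 phage fusion or expressed in HEK-293 cells with a DNA tag; DMSO served as control.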

The target of another assay is FLT3-ITD (Homo sapiens (Human), UniProt P36888, INS600HVDFREYEYD). Briefly: pFLT3 MSD assay, Ba/F3 FLT3-ITD. The format is cell-based. The following applies: Ba/F3 FLT3-ITD cells, 2 hours, read-out: BaF3-FLT3-ITD pFlt3 IC50.
FLT3-ITD, sequence (P36888 other isoform, or with tags, fused parts or gaps limits assumed, stated change not applied): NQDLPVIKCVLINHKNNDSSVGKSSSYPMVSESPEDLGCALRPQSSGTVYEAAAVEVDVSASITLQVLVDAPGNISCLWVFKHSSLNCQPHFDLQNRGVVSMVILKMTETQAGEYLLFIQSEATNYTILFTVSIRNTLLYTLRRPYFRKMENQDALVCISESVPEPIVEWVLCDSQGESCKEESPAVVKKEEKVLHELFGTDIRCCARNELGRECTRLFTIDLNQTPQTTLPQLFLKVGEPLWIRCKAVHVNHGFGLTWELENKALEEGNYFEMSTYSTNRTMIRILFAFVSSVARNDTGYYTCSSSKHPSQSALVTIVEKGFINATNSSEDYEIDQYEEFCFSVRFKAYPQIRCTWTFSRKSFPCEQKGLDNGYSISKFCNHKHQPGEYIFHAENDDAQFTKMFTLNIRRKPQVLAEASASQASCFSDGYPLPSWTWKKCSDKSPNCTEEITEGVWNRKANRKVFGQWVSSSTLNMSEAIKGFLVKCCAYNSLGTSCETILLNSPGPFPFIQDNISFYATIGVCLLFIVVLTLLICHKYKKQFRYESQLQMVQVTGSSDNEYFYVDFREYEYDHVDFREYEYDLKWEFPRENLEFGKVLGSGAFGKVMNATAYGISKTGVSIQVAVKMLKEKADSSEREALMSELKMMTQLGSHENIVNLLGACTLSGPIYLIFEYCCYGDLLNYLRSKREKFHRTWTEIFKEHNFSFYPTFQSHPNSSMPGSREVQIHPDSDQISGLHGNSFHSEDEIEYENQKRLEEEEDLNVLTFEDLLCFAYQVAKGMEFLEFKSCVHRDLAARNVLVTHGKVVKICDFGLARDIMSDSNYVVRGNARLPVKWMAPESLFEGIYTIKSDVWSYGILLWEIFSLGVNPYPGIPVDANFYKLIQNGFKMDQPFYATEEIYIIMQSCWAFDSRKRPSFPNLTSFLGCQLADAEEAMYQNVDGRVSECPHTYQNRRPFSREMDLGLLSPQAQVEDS
In another assay the target is FLT3 kinase (Homo sapiens (Human), UniProt P36888). The experiment in a line: Competition binding assay (Kd), FLT3. The settings on record: competition binding assay.
FLT3 kinase, sequence (P36888 27-993): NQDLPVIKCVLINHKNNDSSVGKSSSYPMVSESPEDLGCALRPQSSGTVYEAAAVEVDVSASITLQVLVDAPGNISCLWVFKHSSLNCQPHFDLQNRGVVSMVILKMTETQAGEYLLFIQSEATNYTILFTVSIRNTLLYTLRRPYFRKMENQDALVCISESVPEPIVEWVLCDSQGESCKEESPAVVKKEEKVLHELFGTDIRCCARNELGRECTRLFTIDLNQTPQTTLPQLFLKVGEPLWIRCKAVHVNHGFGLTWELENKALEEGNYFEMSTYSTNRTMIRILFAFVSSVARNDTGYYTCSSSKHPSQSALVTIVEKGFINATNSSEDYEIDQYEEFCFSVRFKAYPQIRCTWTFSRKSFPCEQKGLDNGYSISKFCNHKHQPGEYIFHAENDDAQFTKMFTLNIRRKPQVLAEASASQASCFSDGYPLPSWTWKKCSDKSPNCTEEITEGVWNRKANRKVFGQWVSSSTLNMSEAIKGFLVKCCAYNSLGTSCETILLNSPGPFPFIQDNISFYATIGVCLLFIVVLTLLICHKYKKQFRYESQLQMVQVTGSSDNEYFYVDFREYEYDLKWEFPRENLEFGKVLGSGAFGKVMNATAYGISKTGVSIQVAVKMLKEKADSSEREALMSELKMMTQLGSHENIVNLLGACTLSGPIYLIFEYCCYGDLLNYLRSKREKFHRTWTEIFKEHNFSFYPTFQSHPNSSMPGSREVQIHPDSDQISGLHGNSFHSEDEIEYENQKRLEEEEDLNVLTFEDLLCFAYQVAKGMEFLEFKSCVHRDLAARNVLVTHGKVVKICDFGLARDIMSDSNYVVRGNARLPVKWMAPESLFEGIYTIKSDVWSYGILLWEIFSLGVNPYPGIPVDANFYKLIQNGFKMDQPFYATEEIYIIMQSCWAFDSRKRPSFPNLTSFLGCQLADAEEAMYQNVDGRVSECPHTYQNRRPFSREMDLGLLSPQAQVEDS

KIT kinase, sequence (P10721 26-976): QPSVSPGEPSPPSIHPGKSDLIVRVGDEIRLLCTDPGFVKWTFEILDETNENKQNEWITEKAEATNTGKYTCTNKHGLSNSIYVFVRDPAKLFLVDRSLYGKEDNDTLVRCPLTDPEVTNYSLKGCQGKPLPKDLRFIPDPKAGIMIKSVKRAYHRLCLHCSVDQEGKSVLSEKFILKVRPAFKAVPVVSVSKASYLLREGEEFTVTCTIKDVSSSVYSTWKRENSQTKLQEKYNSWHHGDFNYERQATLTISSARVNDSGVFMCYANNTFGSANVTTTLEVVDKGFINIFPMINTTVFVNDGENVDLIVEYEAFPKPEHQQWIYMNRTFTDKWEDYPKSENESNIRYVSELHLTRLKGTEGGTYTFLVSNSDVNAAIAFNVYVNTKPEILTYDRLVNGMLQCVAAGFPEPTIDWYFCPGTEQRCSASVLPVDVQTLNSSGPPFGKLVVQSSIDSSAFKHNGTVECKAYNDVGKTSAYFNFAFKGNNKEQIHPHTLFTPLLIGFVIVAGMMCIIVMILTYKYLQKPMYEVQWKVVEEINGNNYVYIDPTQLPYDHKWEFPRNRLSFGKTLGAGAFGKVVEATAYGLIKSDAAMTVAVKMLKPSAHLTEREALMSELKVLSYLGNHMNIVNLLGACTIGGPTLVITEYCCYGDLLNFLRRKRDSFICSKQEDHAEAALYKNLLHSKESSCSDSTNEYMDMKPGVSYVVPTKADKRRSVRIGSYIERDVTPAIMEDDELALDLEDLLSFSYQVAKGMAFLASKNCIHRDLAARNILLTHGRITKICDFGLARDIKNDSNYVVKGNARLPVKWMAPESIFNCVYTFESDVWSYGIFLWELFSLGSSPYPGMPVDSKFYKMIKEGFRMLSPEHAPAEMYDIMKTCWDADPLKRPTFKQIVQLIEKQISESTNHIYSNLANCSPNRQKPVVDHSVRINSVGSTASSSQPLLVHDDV
Description for FLT3 kinase: The liganded beads were blocked with excess biotin and washed with blocking buffer (SeaBlock (Pierce), 1% BSA, 0.05% Tween 20, 1 mM DTT) to remove unbound ligand and to reduce non-specific binding. […] Test compounds were prepared as 100× stocks in DMSO and diluted into the aqueous environment. Kds were determined using an eleven point threefold serial dilutions. DMSO or control compounds were was added to control assays lacking a test compound. […] The kinase concentration in the eluates was measured by quantitative PCR.
A selectivity score (S35) is a quantitative measure of selectivity of a compound against a panel of kinases. […] Percent of control (POC) is calculated by subtracting the signal of the control compound (POC=0) from the signal of the test compound and dividing the outcome by the signal of DMSO (POC=100) minus the signal of the control compound.
Description for FLT3-ITD: In certain other embodiments, the compounds disclosed herein are tested in a FLT3 phosphorylation assay to determine their cellular potency against one or both of FLT3-ITD and FLT3 tyrosine kinase domain mutants. In certain embodiments, the FLT3 phosphorylation assay assesses the potency of compounds as FLT3 inhibitors by measuring the reduction in formation of phosphorylated FLT3 in the cells.
Gene constructs containing the human FLT3 sequences FLT3-ITD, FLT3-ITD-F691L, FLT3-ITD-D835V and FLT3-D835V were synthesized by reverse translation of the human protein sequences, with codons optimized for mammalian expression. Sequence of the internal tandem duplication (ITD) was based on the MV4-11 ITD sequence. […] Viruses were transduced into the IL-3-dependent, murine macrophage cell line, Ba/F3, and selected for puromycin resistance and IL-3 independence. All cell lines were cloned by limiting dilution and clones were used for all subsequent cell assays.
Briefly, cell lines were serum starved overnight in media containing 0.5% FBS. Cells were plated at 200,000 cells/well in 96-well round bottom plates in low serum, and 3-fold serial dilutions of test compounds were added for 2 hours at 37° C. […] After an overnight incubation at 4° C. shaking at 450 rpm, plates were washed with MSD wash buffer, and captured FLT3 was detected with biotinylated-anti-phosphotyrosine antibody 4G10 (Millipore) and SulfoTAG-streptavidin (MSD) for 1 hour at room temperature, and read on an MSD SECTOR Imager 6000. Percent remaining phospho-FLT3 in compound-treated cells was normalized to DMSO-treated cells, and IC50s were determined using Igor Pro software. All compounds are assayed in duplicate cell and MSD plates.

Usually Kd stands for the constant that tells how readily two partners part at equilibrium. A lower Kd goes with tighter binding. Broadly, the IC50 is the concentration that gives 50% inhibition. Consider `COc1cc2nc(O)c(-c3ccc(CC(=O)Nc4cc(C5(C(F)(F)F)CC5)on4)c(F)c3)nc2cc1OC` [Example 152, 2-[4-(6,7-dimethoxy-3-hydroxy-quinoxalin-2-yl)-2-fluoro-phenyl]-N-[5-[1-(trifluoromethyl)cyclo-propyl]isoxazol-3-yl]acetamide], for which the Kd at KIT kinase and at FLT3 kinase was below 5 nM throughout. Moreover, the IC50 on FLT3-ITD was below 10 nM.

As to `COc1cc2nc(N)c(-c3ccc(CC(=O)Nc4cc(C5(C(F)(F)F)CC5)on4)c(F)c3)nc2cc1OC` [Example 123, 2-[4-(3-amino-6,7-dimethoxy-quinoxalin-2-yl)-2-fluoro-phenyl]-N-[5-[1-(trifluoro-methyl)cyclopropyl]isoxazol-3-yl]acetamide], the Kd at KIT kinase and at FLT3 kinase was below 5 nM in each case. On FLT3-ITD, the IC50 was below 10 nM.

`CC(O)c1n[nH]c2ncc(-c3ccc(CC(=O)Nc4cc(C(C)(C)C)on4)c(F)c3)cc12` (centres unmarked) [Example 62, N-(5-(tert-butyl)isoxazol-3-yl)-2-(2-fluoro-4-(3-(1-hydroxyethyl)-1H-pyrazolo[3,4-b]pyridin-5-yl)phenyl)acetamide]: the Kd on KIT kinase and at FLT3 kinase was below 5 nM in each case. Also, the IC50 on FLT3-ITD was below 10 nM.

With `COc1cc2ncc(-c3ccc(CC(=O)Nc4cc(C5(C(F)(F)F)CC5)on4)c(F)c3)nc2cc1OCCN(C)C` [Example 158, 2-[4-[7-[2-(dimethylamino)ethoxy]-6-methoxy-quinoxalin-2-yl]-2-fluoro-phenyl]-N-[5-[1-(trifluoromethyl)cyclo-propyl]isoxazol-3-yl]acetamide], the equilibrium dissociation constant (Kd) at KIT kinase and at FLT3 kinase was below 5 nM each time. Besides, the IC50 at FLT3-ITD was below 10 nM.

On to `COCCOc1cc2ncc(-c3ccc(CC(=O)Nc4cc(C(C)(C)C)nn4C)c(F)c3)nc2cc1OC` [Example 162, N-(5-tert-butyl-2-methyl-pyrazol-3-yl)-2-[2-fluoro-4-[7-methoxy-6-(2-methoxyethoxy)quinoxalin-2-yl]phenyl]acetamide], for which the Kd on KIT kinase and on FLT3 kinase was below 5 nM throughout. Besides, at FLT3-ITD, the IC50 is below 10 nM.

In the case of `COc1cc2nc(-c3ccc(CC(=O)Nc4cc(C5(C(F)(F)F)CC5)on4)c(F)c3)cnc2cc1OC1CNC1` [Example 89, 2-(4-(6-(azetidin-3-yloxy)-7-methoxyquinoxalin-2-yl)-2-fluorophenyl)-N-(5-(1-(trifluoromethyl)cyclopropyl)isoxazol-3-yl)acetamide], the Kd at KIT kinase lay within 5 to 20 nM. The IC50 on FLT3-ITD was below 10 nM.

The compound `O=C(Cc1ccc(-c2cnc3[nH]ccc3c2)cc1)Nc1cc(C2(C(F)(F)F)CC2)on1` [Example 18, 2-(4-(1H-pyrrolo[2,3-b]pyridin-5-yl)phenyl)-N-(5-(1-(trifluoromethyl)cyclopropyl)isoxazol-3-yl)acetamide] came in with a Kd at KIT kinase below 5 nM. In addition, the IC50 on FLT3-ITD is below 10 nM.

Take `CN(C)Cc1c[nH]c2ncc(-c3ccc(CC(=O)Nc4cc(C(C)(C)C)on4)cc3)cc12` [Example 59, N-(5-(tert-butyl)isoxazol-3-yl)-2-(4-(3-((dimethylamino)methyl)-1H-pyrrolo[2,3-b]pyridin-5-yl)phenyl)acetamide formate salt]: on FLT3-ITD, the half-maximal inhibitory concentration (IC50) was below 10 nM.

On to `COc1cc2ncc(-c3ccc(CC(=O)Nc4cc(C5(C(F)(F)F)CC5)on4)cc3F)nc2cc1OC` [Example 42, 2-(4-(6,7-dimethoxyquinoxalin-2-yl)-3-fluorophenyl)-N-(5-(1-(trifluoromethyl)cyclopropyl)isoxazol-3-yl)acetamide], for which the IC50 at FLT3-ITD is below 10 nM.

For `CN(C)C(=O)c1cc2cc(-c3ccc(CC(=O)Nc4cc(C(C)(C)C)on4)cc3)cnc2[nH]1` [Example 49, 5-(4-(2-((5-(tert-butyl)isoxazol-3-yl)amino)-2-oxoethyl)phenyl)-N,N-dimethyl-1H-pyrrolo[2,3-b]pyridine-2-carboxamide], the IC50 at FLT3-ITD is below 10 nM.

As for `CC(C)(c1cc(NC(=O)Cc2ccc(-c3cnc4[nH]ncc4c3)cc2)no1)C(F)(F)F` [Example 44, 2-(4-(1H-pyrazolo[3,4-b]pyridin-5-yl)phenyl)-N-(5-(1,1,1-trifluoro-2-methylpropan-2-yl)isoxazol-3-yl)acetamide], the IC50 on FLT3-ITD is below 10 nM.

As to `O=C(Cc1ccc(-c2cnc3[nH]ncc3c2)cc1)Nc1cc(C2(C(F)(F)F)CC2)on1` [Example 15, 2-(4-(1H-pyrazolo[3,4-b]pyridin-5-yl)phenyl)-N-(5-(1-(trifluoromethyl)cyclopropyl)isoxazol-3-yl)acetamide], at KIT kinase, the equilibrium dissociation constant (Kd) was below 5 nM. Further, the IC50 on FLT3-ITD is below 10 nM.

Take `COc1cc(OC)c2cc(-c3ccc(CC(=O)Nc4cc(C5(C(F)(F)F)CC5)on4)c(F)c3)cnc2c1` [Example 36, 2-(4-(5,7-dimethoxyquinolin-3-yl)-2-fluorophenyl)-N-(5-(1-(trifluoromethyl)cyclopropyl)isoxazol-3-yl)acetamide]: on FLT3-ITD, the IC50 was below 10 nM.

For the compound `CC(C)(C)c1cc(NC(=O)Cc2ccc(-c3cnc4[nH]ccc4c3)cc2)on1` [Example 71, 2-(4-(1H-pyrrolo[2,3-b]pyridin-5-yl)phenyl)-N-(3-(tert-butyl)isoxazol-5-yl)acetamide], at FLT3-ITD, the IC50 was below 10 nM.

As for `O=C(Cc1ccc(-c2cnc3[nH]ncc3c2)cc1F)Nc1cc(C2(C(F)(F)F)CC2)on1` [Example 33, 2-(2-fluoro-4-(1H-pyrazolo[3,4-b]pyridin-5-yl)phenyl)-N-(5-(1-(trifluoromethyl)cyclopropyl)isoxazol-3-yl)acetamide], the IC50 on FLT3-ITD is below 10 nM.

Take `Cc1n[nH]c2ncc(-c3ccc(CC(=O)Nc4cc(C(C)(C)C)on4)cc3)cc12` [Example 40, N-(5-(tert-butyl)isoxazol-3-yl)-2-(4-(3-methyl-1H-pyrazolo[3,4-b]pyridin-5-yl)phenyl)acetamide]: at FLT3-ITD, the IC50 was below 10 nM.

`CN(C)Cc1n[nH]c2ncc(-c3ccc(CC(=O)Nc4cc(C(C)(C)C)on4)c(F)c3)cc12` [Example 58, N-(5-(tert-butyl)isoxazol-3-yl)-2-(4-(3-((dimethylamino)methyl)-1H-pyrazolo[3,4-b]pyridin-5-yl)-2-fluorophenyl)acetamide]: the IC50 on FLT3-ITD was below 10 nM.

As to `O=C(Cc1ccc(-c2cnc3[nH]ncc3c2)cc1F)Nc1cc(C2(C(F)(F)F)CCC2)on1` [Example 56, 2-(2-Fluoro-4-(1H-pyrazolo[3,4-b]pyridin-5-yl)phenyl)-N-(5-(1-(trifluoromethyl)cyclobutyl)isoxazol-3-yl)acetamide], the IC50 on FLT3-ITD is below 10 nM.

Regarding `CN(C)C(=O)c1n[nH]c2ncc(-c3ccc(CC(=O)Nc4cc(C(C)(C)C)on4)cc3)cc12` [Example 45, 5-(4-(2-((5-(tert-butyl)isoxazol-3-yl)amino)-2-oxoethyl)phenyl)-N,N-dimethyl-1H-pyrazolo[3,4-b]pyridine-3-carboxamide], the concentration for half-maximal inhibition (IC50) at FLT3-ITD is below 10 nM.

Consider `CC(C)(c1cc(NC(=O)Cc2ccc(-c3cnc4[nH]nc(OC5CCNCC5)c4c3)cc2)no1)C(F)(F)F` [Example 48, 2-(4-(3-(piperidin-4-yloxy)-1H-pyrazolo[3,4-b]pyridin-5-yl)phenyl)-N-(5-(1,1,1-trifluoro-2-methylpropan-2-yl)isoxazol-3-yl)acetamide formate salt], for which the IC50 at FLT3-ITD was below 10 nM.

Consider `CC(C)(c1cc(NC(=O)Cc2ccc(-c3cnc4[nH]ccc4c3)cc2F)no1)C(F)(F)F` [Example 29, 2-(2-fluoro-4-(1H-pyrrolo[2,3-b]pyridin-5-yl)phenyl)-N-(5-(1,1,1-trifluoro-2-methylpropan-2-yl)isoxazol-3-yl)acetamide], for which the IC50 at FLT3-ITD was below 10 nM.

As to `COc1cc2ncc(-c3ccc(CC(=O)Nc4cc(C5(C(F)(F)F)CC5)no4)cc3)nc2cc1OC` [Example 72, 2-(4-(6,7-dimethoxyquinoxalin-2-yl)phenyl)-N-(3-(1-(trifluoromethyl)cyclopropyl)isoxazol-5-yl)acetamide], at FLT3-ITD, the concentration for half-maximal inhibition (IC50) was below 10 nM.

Regarding `CC(C)(c1cc(NC(=O)Cc2ccc(-c3cnc4[nH]ncc4c3)cc2F)no1)C(F)(F)F` [Example 34, 2-(2-fluoro-4-(1H-pyrazolo[3,4-b]pyridin-5-yl)phenyl)-N-(5-(1,1,1-trifluoro-2-methylpropan-2-yl)isoxazol-3-yl)acetamide], on FLT3-ITD, the IC50 was below 10 nM.

Regarding `CC(C)(C)c1cc(NC(=O)Cc2ccc(-c3cnc4[nH]ncc4c3)cc2)no1` [Example 31, 2-(4-(1H-pyrazolo[3,4-b]pyridin-5-yl)phenyl)-N-(5-(tert-butyl)isoxazol-3-yl)acetamide], the IC50 on FLT3-ITD is below 10 nM.

As to `CNCc1c[nH]c2ncc(-c3ccc(CC(=O)Nc4cc(C(C)(C)C)on4)cc3)cc12` [Example 54, N-(5-(tert-butyl)isoxazol-3-yl)-2-(4-(3-((methylamino)methyl)-1H-pyrrolo[2,3-b]pyridin-5-yl)phenyl)acetamide], the IC50 at FLT3-ITD fell in the range of 10 to 20 nM.

On to `CC(C)(C)c1cc(NC(=O)Cc2ccc(-c3cnc4[nH]nc(C#N)c4c3)cc2)no1` [Example 37, N-(5-(tert-butyl)isoxazol-3-yl)-2-(4-(3-cyano-1H-pyrazolo[3,4-b]pyridin-5-yl)phenyl)acetamide], for which the IC50 on FLT3-ITD was below 10 nM.

As for `COCCOc1n[nH]c2ncc(-c3ccc(CC(=O)Nc4cc(C(C)(C)C(F)(F)F)on4)cc3)cc12` [Example 47, 2-(4-(3-(2-methoxyethoxy)-1H-pyrazolo[3,4-b]pyridin-5-yl)phenyl)-N-(5-(1,1,1-trifluoro-2-methylpropan-2-yl)isoxazol-3-yl)acetamide], the IC50 on FLT3-ITD is below 10 nM.

For the compound `CC(C)(C)c1cc(NC(=O)Cc2ccc(-c3cnc4[nH]ccc4c3)cc2F)no1` [Example 27, N-(5-(tert-butyl)isoxazol-3-yl)-2-(2-fluoro-4-(1H-pyrrolo[2,3-b]pyridin-5-yl)phenyl)acetamide], the IC50 on FLT3-ITD was below 10 nM.
